Test results taken from patent US20190002436A1, “RESPIRATORY SYNCYTIAL VIRUS INHIBITORS” (MEDIVIR AB, priority 2015, published 2019).

System: RSV (Long)
Experiment: RSV cytopathic effect (CPE)-based viral replication assay
Format: cell-based, respiratory syncytial virus (RSV)
Conditions: HEp-2 cells infected with RSV Long at MOI 0.015; 3 days at 37° C.; cell viability by CellTiter-Glo luminescence; read-out: EC50 (nm)
Description: Example A: RSV Cytopathic Effect
Compounds of the invention are initially tested in a cytopathic effect (CPE)-based viral replication assay using immortalized cells and a laboratory strain of RSV (Long). This assay evaluates the ability of a compound to inhibit viral replication.
Assay plates are prepared by seeding 2,500 HEp-2 cells (ATCC) per well of a 384-well black clear-bottom plate (Greiner Bio-One) in 20 μL of assay media (defined as DMEM supplemented with 2% heat-inactivated fetal bovine serum and 1% Penicillin/Streptomycin). Assay plates are incubated overnight at 37° C. in an incubator containing 5% CO2. The following day, a 10-point serial dilution of test compound is prepared in DMSO. Compounds are subsequently diluted with assay media and 20 μL of diluted compound (containing 1.5% DMSO) is transferred to an assay plate for evaluation of antiviral activity.
For the CPE assay, cells are infected at a Multiplicity of Infection (MOI) of 0.015 using 20 μL of RSV Long (ATCC) diluted in assay media. The DMSO concentration is constant throughout the assay plate, including the negative and positive controls. The assay plate is incubated for 3 days at 37° C. in an incubator containing 5% CO2. Cell viability is evaluated with the addition of 10 μL of CellTiter-Glo (ProMega). Luminescence is measured using an EnVision plate reader (Perkin Elmer). EC50 values are calculated using the raw data from the CPE assays.

Compound | EC50 [nM]
CS(=O)(=O)N1CCC2(CC1)C(=O)N(Cc1ncc3ccccc3c1CCCCO)c1cnccc12 [Example 37c, 1′-((4-(4-Hvdroxybutyl)isoquinolin-3-yl)methyl)-1-(methylsulfonyl)spiro[piperidine-4,3′-pyrrolo[2,3-c]pyridin]-2′(1′H)-one] | 7.2

Same assay, conditions: human respiratory syncytial virus, HEp-2, 72 h, HEp-2 cells infected with RSV Long at MOI 0.015; 3 days at 37° C.; cell viability by CellTiter-Glo luminescence; read-out: EC50 (nm)

Compound | EC50 [nM]
CN(C)C(=O)c1ccc(-c2c(CN3C(=O)C4(CCN(C(=O)C5(N)CC5)CC4)c4ccncc43)ncc3ccccc23)cn1 [Example 120, 5-(3-((1-(1-aminocyclopropanecarbonyl)-2′-oxospiro[piperidine-4,3′-pyrrolo[2,3-c]pyridin]-1′(2′H)-yl)methyl)isoquinolin-4-yl)-N,N-dimethylpicolinamide] | 4.7
O=c1n(Cc2ncc3ccccc3c2-c2cccc(CO)c2)c2cnccc2n1C1CC1 [Example 10, 1-Cyclopropyl-3-((4-(3-(hydroxymethyl)phenyl)isoquinolin-3-yl)methyl)-1H-imidazo[4,5-c]pyridin-2(3H)-one] | 240
CS(=O)(=O)N1CC2(C1)C(=O)N(Cc1ncc3ccccc3c1-c1ccc(C(F)(F)F)cc1)c1ccccc12 [Example 79, 1-(Methylsulfonyl)-1′-((4-(4-(trifluoromethyl)phenyl)isoquinolin-3-yl)methyl)spiro[azetidine-3,3′-indolin]-2′-one] | 8.7
NC1(C(=O)N2CCC3(CC2)C(=O)N(Cc2ncc4ccccc4c2-c2cnc(C(F)(F)F)s2)c2cnccc23)CC1 [Example 2028] | 13
N#Cc1ccc(-c2c(CN3C(=O)C4(CN(C(N)=O)C4)c4ccccc43)ncc3ccccc23)cn1 [Example 77] | 3
NCCC(=O)N1CCC2(CC1)C(=O)N(Cc1ncc3ccccc3c1-c1cccnc1)c1cnccc12 [Example 141, 1-(3-aminopropanoyl)-1′-((4-(pyridin-3-yl)isoquinolin-3-yl)methyl)spiro[piperidine-4,3′-pyrrolo[2,3-c]pyridin]-2′(1′H)-one] | 11
NCc1ccc2c(CCCCO)c(Cn3c(=O)n(C4CC4)c4ccccc43)ncc2c1 [Example 27] | 17
CS(=O)(=O)N1CC2(C1)C(=O)N(Cc1ncc3ccccc3c1-c1ccc(F)c(F)c1)c1ccccc12 [Example 75] | 7.1
NC1(C(=O)N2CCC3(CC2)C(=O)N(Cc2ncc4ccccc4c2-c2ccncc2)c2cnccc23)CC1 [Example 2016] | 7.1
CNC1(C(=O)N2CC3(C2)C(=O)N(Cc2ncc4ccccc4c2-c2ccc(NS(C)(=O)=O)cn2)c2ccccc23)CC1 [Example 2005] | 230
COC(=O)N1CCC(n2c(=O)n(Cc3ncc4ccccc4c3CCCCO)c3cnccc32)CC1 [Example 2d, Methyl 4-(3-((4-(4-hydroxybutyl)isoquinolin-3-yl)methyl)-2-oxo-2,3-dihydro-1H-imidazo[4,5-c]pyridin-1-yl)piperidine-1-carboxylate] | 2
COC(=O)N1CC2(CC(n3c(=O)n(Cc4ncc5ccccc5c4CCCCO)c4ccccc43)C2)C1 [Example 17, Methyl 6-(3-((4-(4-hydroxybutyl)isoquinolin-3-yl)methyl)-2-oxo-2,3-dihydro-1H-benzo[d]imidazol-1-yl)-2-azaspiro[3.3]heptane-2-carboxylate] | 58
COC(=O)N1CC2(C1)C(=O)N(Cc1nc(C(F)F)c3ccccc3c1-c1cccnc1)c1ccccc12 [Example 2003] | 1000
CS(=O)(=O)N1CC2(C1)C(=O)N(Cc1ncc3ccccc3c1-c1ccc(C#N)cc1)c1ccccc12 [Example 76] | 2.5
COC(=O)N1CCC(n2c(=O)n(Cc3ncc4cccc(F)c4c3CCCCO)c3cnccc32)CC1 [Example 30, Methyl 4-(3-((5-fluoro-4-(4-hydroxybutyl)isoquinolin-3-yl)methyl)-2-oxo-2,3-dihydro-1H-imidazo[4,5-c]pyridin-1-yl)piperidine-1-carboxylate] | 18
CS(=O)(=O)N1CCC2(CC1)C(=O)N(Cc1ncc3ccccc3c1-c1cccnc1)c1cnccc12 [Example 136, 1-(methylsulfonyl)-1′-((4-(pyridin-3-yl)isoquinolin-3-yl)methyl)spiro[piperidine-4,3′-pyrrolo[2,3-c]pyridin]-2′(1′H)-one] | 0.8
CS(=O)(=O)N1CCC2(CC1)C(=O)N(Cc1ncc3ccccc3c1-c1ccc(C3(N)CC3)nc1)c1cnccc12 [Example 2026] | 2.2
CS(=O)(=O)N1CC2(C1)C(=O)N(Cc1ncc3cc(Cl)ccc3c1-c1cccnc1)c1cnccc12 [Example 162, 1′-((7-chloro-4-(pyridin-3-yl)isoquinolin-3-yl)methyl)-1-(methylsulfonyl)spiro[azetidine-3,3′-pyrrolo[2,3-c]pyridin]-2′(1′H)-one] | 4.8
NC(c1ccc(-c2c(CN3C(=O)C4(CCN(C(=O)C5(N)CC5)CC4)c4ccncc43)ncc3ccccc23)cn1)C(F)(F)F (stereo not shown) [Example 2042] | 22
COC(=O)N1CC2(C1)C(=O)N(Cc1ncc3ccccc3c1-c1ccc(N)nc1)c1ccccc12 [Example 104, methyl 1′-((4-(6-aminopyridin-3-yl)isoquinolin-3-yl)methyl)-2′-oxospiro[azetidine-3,3′-indoline]-1-carboxylate] | 1.5
NCc1ccc2c(CCCCO)c(Cn3c(=O)n(C4CC4)c4ccncc43)ncc2c1 [Example 26, 3-((7-(Aminomethyl)-4-(4-hydroxybutyl)isoquinolin-3-yl)methyl)-1-cyclopropyl-1H-imidazo[4,5-c]pyridin-2(3H)-one] | 5.9
O=c1n(Cc2ncc3ccccc3c2COCC(F)(F)F)c2cnccc2n1C1CC1 [Example 127, 1-Cyclopropyl-3-((4-((2,2,2-trifluoroethoxy)methyl)isoquinolin-3-yl)methyl)-1H-imidazo[4,5-c]pyridin-2(3H)-one] | 690
CS(=O)(=O)N1CCC2(CC1)C(=O)N(Cc1ncc3cc(F)ccc3c1-c1cncs1)c1cnccc12 [Example 2010] | 1.5
O=C1N(Cc2ncc3ccccc3c2CCCCO)c2ccccc2C12CNC2 [Example 40, 1′-((4-(4-Hydroxybutyl)isoquinolin-3-yl)methyl)spiro[azetidine-3,3′-indolin]-2′-one] | 110

More lines, now with the values ahead:

EC50 [nM] | Compound
41 | COC(=O)N1CCC(n2c(=O)n(Cc3ncc4cc(C#N)ccc4c3CCCCO)c3cnccc32)CC1 [Example 23b, methyl 4-(3-((7-cyano-4-(4-hydroxybutyl)isoquinolin-3-yl)methyl)-2-oxo-2,3-dihydro-1H-imidazo[4,5-c]pyridin-1-yl)piperidine-1-carboxylate]
15 | CNC1(C(=O)N2CC3(C2)C(=O)N(Cc2ncc4ccccc4c2-c2ccc(S(N)(=O)=O)nc2)c2ccccc23)CC1 [Example 123b, 5-(3-((1-(1-(methylamino)cyclopropanecarbonyl)-2′-oxospiro[azetidine-3,3′-indolin]-1′-yl)methyl)isoquinolin-4-yl)pyridine-2-sulfonamide]
88 | COC(=O)N1CCC2(CC1)C(=O)N(Cc1ncc3ccccc3c1CCCS(C)(=O)=O)c1cnccc12 [Example 11c, Methyl 1′-((4-(3-(methylsulfonyl)propyl)isoquinolin-3-yl)methyl)-2′-oxo-1′,2′-dihydrospiro[piperidine-4,3′-pyrrolo[2,3-c]pyridine]-1-carboxylate]
10 | COC(=O)N1CCC2(CC1)C(=O)N(Cc1ncc3ccccc3c1-c1ccc(C#N)cc1)c1cnccc12 [Example 12b, Methyl 1′-((4-(4-cyanophenyl)isoquinolin-3-yl)methyl)-2′-oxo-1′,2′-dihydrospiro[piperidine-4,3′-pyrrolo[2,3-c]pyridine]-1-carboxylate]
0.55 | COC(=O)N1CC2(C1)C(=O)N(Cc1ncc3ccccc3c1-c1ccc(NS(C)(=O)=O)nc1)c1ccccc12 [Example 134b, Methyl 1′-((4-(6-(methylsulfonamido)pyridin-3-yl)isoquinolin-3-yl)methyl)-2′-oxospiro[azetidine-3,3′-indoline]-1-carboxylate]
2.8 | COC(=O)N1CC2(C1)C(=O)N(Cc1ncc3ccccc3c1-c1ccc(C#N)nc1)c1ccccc12 [Example 44c, Methyl 1′-((4-(6-cyanopyridin-3-yl)isoquinolin-3-yl)methyl)-2′-oxospiro[azetidine-3,3′-indoline]-1-carboxylate]
6.4 | COC(=O)N1CCC2(CC1)C(=O)N(Cc1ncc3ccccc3c1CCCCO)c1cnccc12 [Example 21b, Methyl 1′-((4-(4-hydroxybutyl)isoquinolin-3-yl)methyl)-2′-oxo-1′,2′-dihydrospiro[piperidine-4,3′-pyrrolo[2,3-c]pyridine]-1-carboxylate]
4.3 | NC1(C(=O)N2CCC3(CC2)C(=O)N(Cc2ncc4ccccc4c2-c2ccc(C(=O)O)nc2)c2cnccc23)CC1 [Example 50b, 5-(3-((1-(1-aminocyclopropanecarbonyl)-2′-oxospiro[piperidine-4,3′-pyrrolo[2,3-c]pyridin]-1′(2′H)-yl)methyl)isoquinolin-4-yl)picolinic acid]
9 | O=c1n(Cc2ncc3ccccc3c2CCCC(F)(F)F)c2cnccc2n1C1CC1 [Example 8e, 1-cyclopropyl-3-((4-(4,4,4-trifluorobutyl)isoquinolin-3-yl)methyl)-1H-imidazo[4,5-c]pyridin-2(3H)-one]
